Inconclusive results and toxic doses are left out.
System: CD2F1 mice, L1210 leukemia ip, survival T/C
Experiment: NCI In Vivo Anticancer Drug Screen. Data for tumor model L1210 Leukemia (intraperitoneal) in CD2F1 (CDF1) mice
Details: higher = longer survival
Procedure, shortened: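 Tumor-bearing mice (transplanted tumor) were split into treated and vehicle control groups, and the measured endpoint of each treated group was divided by that of its vehicle controls.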

Which results are given for `C=CN1CCCC1=O`?
T/C (endpoint: mean survival time, dose: 100.0 mg/kg/injection, schedule: Q04DX003 (ip), vehicle: saline with Tween-80): 98 % of control; T/C (endpoint: mean survival time, dose: 200.0 mg/kg/injection, schedule: Q04DX003 (ip), vehicle: saline with Tween-80): 101 % of control; T/C (endpoint: mean survival time, dose: 400.0 mg/kg/injection, schedule: Q04DX003 (ip), vehicle: saline with Tween-80): 95 % of control; T/C (endpoint: mean survival time, dose: 1400.0 mg/kg/injection, schedule: Q01DX001 (ip), vehicle: saline): 101 % of control; T/C (endpoint: mean survival time, dose: 1600.0 mg/kg/injection, schedule: Q01DX001 (ip), vehicle: saline): 110 % of control; T/C (endpoint: mean survival time, dose: 1800.0 mg/kg/injection, schedule: Q01DX001 (ip), vehicle: saline): 117 % of control; T/C (endpoint: mean survival time, dose: 2000.0 mg/kg/injection, schedule: Q01DX001 (ip), vehicle: saline): 114 % of control; T/C (endpoint: median survival time, dose: 1.9 grams/kg/injection, schedule: Q01DX001 (iv), vehicle: saline): 100 % of control; T/C (endpoint: median survival time, dose: 1.9 grams/kg/injection, schedule: Q01DX005 (iv), vehicle: saline): 112 % of control; T/C (endpoint: median survival time, dose: 1.9 grams/kg/injection, schedule: Q03HX008 (ip), vehicle: saline): 112 % of control; T/C (endpoint: median survival time, dose: 1.9 grams/kg/injection, schedule: Q03HX016 (ip), vehicle: saline): 106 % of control; T/C (endpoint: median survival time, dose: 1.9 grams/kg/injection, schedule: Q03HX024 (ip), vehicle: saline): 112 % of control; T/C (endpoint: median survival time, dose: 1.9 grams/kg/injection, schedule: Q04DX003 (iv), vehicle: saline): 112 % of control; T/C (endpoint: median survival time, dose: 3.8 grams/kg/injection, schedule: Q01DX001 (ip), vehicle: saline): 112 % of control; T/C (endpoint: median survival time, dose: 3.8 grams/kg/injection, schedule: Q01DX001 (iv), vehicle: saline): 100 % of control; T/C (endpoint: median survival time, dose: 3.8 grams/kg/injection, schedule: Q01DX005 (ip), vehicle: saline): 100 % of control; T/C (endpoint: median survival time, dose: 3.8 grams/kg/injection, schedule: Q01DX005 (iv), vehicle: saline): 100 % of control; T/C (endpoint: median survival time, dose: 3.8 grams/kg/injection, schedule: Q01DX009 (ip), vehicle: saline): 100 % of control; T/C (endpoint: median survival time, dose: 3.8 grams/kg/injection, schedule: Q03HX008 (ip), vehicle: saline): 112 % of control; T/C (endpoint: median survival time, dose: 3.8 grams/kg/injection, schedule: Q03HX016 (ip), vehicle: saline): 112 % of control; T/C (endpoint: median survival time, dose: 3.8 grams/kg/injection, schedule: Q03HX024 (ip), vehicle: saline): 112 % of control; T/C (endpoint: median survival time, dose: 3.8 grams/kg/injection, schedule: Q04DX003 (ip), vehicle: saline): 106 % of control; T/C (endpoint: median survival time, dose: 3.8 grams/kg/injection, schedule: Q04DX003 (iv), vehicle: saline): 112 % of control; T/C (endpoint: median survival time, dose: 3.8 grams/kg/injection, schedule: Q08DX002 (ip), vehicle: saline): 106 % of control; T/C (endpoint: median survival time, dose: 7.5 grams/kg/injection, schedule: Q01DX001 (ip), vehicle: saline): 100 % of control; T/C (endpoint: median survival time, dose: 7.5 grams/kg/injection, schedule: Q01DX001 (iv), vehicle: saline): 100 % of control; T/C (endpoint: median survival time, dose: 7.5 grams/kg/injection, schedule: Q01DX005 (ip), vehicle: saline): 112 % of control; T/C (endpoint: median survival time, dose: 7.5 grams/kg/injection, schedule: Q01DX005 (iv), vehicle: saline): 106 % of control; T/C (endpoint: median survival time, dose: 7.5 grams/kg/injection, schedule: Q01DX009 (ip), vehicle: saline): 100 % of control; T/C (endpoint: median survival time, dose: 7.5 grams/kg/injection, schedule: Q03HX008 (ip), vehicle: saline): 112 % of control; T/C (endpoint: median survival time, dose: 7.5 grams/kg/injection, schedule: Q04DX003 (ip), vehicle: saline): 100 % of control; T/C (endpoint: median survival time, dose: 7.5 grams/kg/injection, schedule: Q04DX003 (iv), vehicle: saline): 106 % of control; T/C (endpoint: median survival time, dose: 7.5 grams/kg/injection, schedule: Q08DX002 (ip), vehicle: saline): 112 % of control; T/C (endpoint: median survival time, dose: 15.0 grams/kg/injection, schedule: Q01DX001 (ip), vehicle: saline): 112 % of control; T/C (endpoint: median survival time, dose: 15.0 grams/kg/injection, schedule: Q01DX009 (ip), vehicle: saline): 118 % of control; T/C (endpoint: median survival time, dose: 15.0 grams/kg/injection, schedule: Q04DX003 (ip), vehicle: saline): 112 % of control; T/C (endpoint: median survival time, dose: 15.0 grams/kg/injection, schedule: Q08DX002 (ip), vehicle: saline): 106 % of control

Which T/C (endpoint: mean survival time, dose: 12.5 mg/kg/injection, schedule: Q04DX003 (ip), vehicle: suspension in saline) does the source give for `O=C(O)C1(C(=O)O)CCCCC1.[NH2-].[NH2-].[Pt+2]` here?
The T/C was 108 % of control.

And the T/C (endpoint: mean survival time, dose: 25.0 mg/kg/injection, schedule: Q04DX003 (ip), vehicle: suspension in saline)?
The T/C was 122 % of control.

What about the T/C (endpoint: mean survival time, dose: 80.0 mg/kg/injection, schedule: Q04DX003 (ip), vehicle: saline) of the same compound?
Its T/C is 182 % of control.

What about the T/C (endpoint: mean survival time, dose: 100.0 mg/kg/injection, schedule: Q04DX003 (ip), vehicle: suspension in saline) of the same compound?
The T/C was 112 % of control.

For `COc1ccccc1C(O)(C(=O)OCCSC)c1ccccc1OC`, which T/C (endpoint: mean survival time, dose: 100.0 mg/kg/injection, schedule: Q04DX003 (ip), vehicle: saline) is on record?
Its T/C is 93 % of control.

What about the T/C (endpoint: mean survival time, dose: 200.0 mg/kg/injection, schedule: Q04DX003 (ip), vehicle: saline) of the same compound?
The T/C was 94 % of control.

And the T/C (endpoint: mean survival time, dose: 400.0 mg/kg/injection, schedule: Q04DX003 (ip), vehicle: saline)?
The T/C was 88 % of control.

Source: PubChem BioAssay AID256 (DTP/NCI, 2004)
